Source: US20090054392A1, “NAPHTHYLPYRIMIDINE, NAPHTHYLPYRAZINE AND NAPHTHYLPYRIDAZINE ANALOGS AND THEIR USE AS AGONISTS OF THE WNT-BETA-CATENIN CELLULAR MESSAGING SYSTEM” (Wyeth, priority 2007, published 2009)
pEC50: −log10 of the molar value.

Tested on: Dkk1-LRP5-TCF-Luciferase
Assay: Functional Dkk1-LRP5-TCF-Luciferase Assay in U2OS Cells
Details: for fold induction at 2 µM / fold induction at 20 µM / pEC50: Homo sapiens, U2OS; for fold induction at 2 µM: read-out: B = TCF ACTIVITY/DMSO CONTROL Fold induction @ 2.0 uM, 2.0 uM compound; for fold induction at 20 µM: read-out: C = TCF ACTIVITY/DMSO CONTROL Fold induction @ 20.0 uM, 20.0 uM compound; for A = MAX FOLD Induction/DMSO CONTROL: maximum fold induction over DMSO control

Compound | fold induction at 2 µM | fold induction at 20 µM | A = MAX FOLD Induction/DMSO CONTROL [fold] | pEC50
CN(C)CC1CCN(c2nccc(-c3ccc4ccccc4c3)n2)CC1 [N,N-dimethyl-1-{1-[4-(2-naphthyl)pyrimidin-2-yl]piperidin-4-yl}methanamine] | 1.85 |  |  | 
CN(C1CCCCC1)[C@@H]1CCN(c2nccc(-c3ccc4ccccc4c3)n2)C1 [(3R)—N-cyclohexyl-N-methyl-1-[4-(2-naphthyl)pyrimidin-2-yl]pyrrolidin-3-amine] | 1.07 | 1.77 |  | 
c1ccc2cc(-c3ccnc(N4CC[C@@H](N5CCNCC5)C4)n3)ccc2c1 [4-(2-naphthyl)-2-[(3R)-3-piperazin-1-ylpyrrolidin-1-yl]pyrimidine] | 3.44 |  | 2.510 | 
CN(C1CCCCC1)[C@H]1CCN(c2nccc(-c3ccc4ccccc4c3)n2)C1 [(3S)—N-cyclohexyl-N-methyl-1-[4-(2-naphthyl)pyrimidin-2-yl]pyrrolidin-3-amine] | 1.22 | 0.01 |  | 
CC(C)(C)NC(=O)[C@H]1CCCN1c1nccc(-c2ccc3ccccc3c2)n1 [N-tert-butyl-1-[4-(2-naphthyl)pyrimidin-2-yl]-D-prolinamide] | 1.16 | 0.6 |  | 
CN1C[C@@H]2C[C@H]1CN2[C@@H]1CCN(c2nccc(-c3ccc4ccccc4c3)n2)C1 [(1S,4S)-2-methyl-5-{(3R)-1-[4-(2-naphthyl)pyrimidin-2-yl]pyrrolidin-3-yl}-2,5-diazabicyclo[2.2.1]heptane] | 1.5 |  |  | 
CCN(CC)C(=O)N[C@H]1CCN(c2nccc(-c3ccc4ccccc4c3)n2)C1 [N,N-diethyl-N′-{(3S)-1-[4-(2-naphthyl)pyrimidin-2-yl]pyrrolidin-3-yl}urea] | 1.83 |  |  | 
c1ccc2cc(-c3ccnc(N4CCC(CN5CCCCCC5)C4)n3)ccc2c1 (stereo not shown) [1-({1-[4-(2-naphthyl)pyrimidin-2-yl]pyrrolidin-3-yl}methyl)azepane] | 2.33 |  | 2.260 | 
CC(C)COc1ccc2cc(-c3ccnc(N4CCC(CN)CC4)n3)ccc2c1 [1-{1-[4-(6-isobutoxy-2-naphthyl)pyrimidin-2-yl]piperidin-4-yl}methanamine] | 1.54 |  |  | 
CS(=O)(=O)NCC1CCN(c2nccc(-c3ccc4ccccc4c3)n2)CC1 [N-({1-[4-(2-naphthyl)pyrimidin-2-yl]piperidin-4-yl}methyl)methanesulfonamide] | 1.12 | 0.48 |  | 
CN(C)C(=O)N1CC[C@H](Nc2nccc(-c3ccc4ccccc4c3)n2)C1 [(3S)—N,N-dimethyl-3-{[4-(2-naphthyl)pyrimidin-2-yl]amino}pyrrolidine-1-carboxamide] | 2.05 | 3.05 | 2.945 | 5.57
CS(=O)(=O)NCC1CN(c2nccc(-c3ccc4ccccc4c3)n2)C1 [N-({1-[4-(2-naphthyl)pyrimidin-2-yl]azetidin-3-yl}methyl)methanesulfonamide] | 1.1 | 1.38 |  | 
O=C([C@@H]1CCCN1c1nccc(-c2ccc3ccccc3c2)n1)N1CCCC1 [4-(2-naphthyl)-2-[(2S)-2-(pyrrolidin-1-ylcarbonyl)pyrrolidin-1-yl]pyrimidine] | 0.87 | 1.07 |  | 
CC(C)NC(=O)N1CCC(Nc2nccc(-c3ccc4ccccc4c3)n2)CC1 [N-isopropyl-4-{[4-(2-naphthyl)pyrimidin-2-yl]amino}piperidine-1-carboxamide] | 1.07 | 1.37 |  | 
COC(=O)N1CC[C@H](Nc2nccc(-c3ccc4ccccc4c3)n2)C1 [methyl (3S)-3-{[4-(2-naphthyl)pyrimidin-2-yl]amino}pyrrolidine-1-carboxylate] | 1.65 | 2.12 | 2.725 | 5.56
CN(C)S(=O)(=O)NCC1CCN(c2nccc(-c3ccc4ccccc4c3)n2)CC1 [N,N-dimethyl-N′-({1-[4-(2-naphthyl)pyrimidin-2-yl]piperidin-4-yl}methyl)sulfamide] | 1.05 | 1.11 |  | 
NCC[C@@H]1CCCN1c1nccc(-c2ccc3ccccc3c2)n1 [2-{(2S)-1-[4-(2-naphthyl)pyrimidin-2-yl]pyrrolidin-2-yl}ethanamine] | 4.08 | 0.02 | 2.950 | 
O[C@@H]1CCN(CC2CCN(c3nccc(-c4ccc5ccccc5c4)n3)C2)C1 (stereo partly drawn) [(3R)-1-({1-[4-(2-naphthyl)pyrimidin-2-yl]pyrrolidin-3-yl}methyl)pyrrolidin-3-ol] | 1.2 |  |  | 
c1ccc2cc(-c3ccnc(N4CCCCC4)n3)ccc2c1 [4-(2-naphthyl)-2-piperidin-1-ylpyrimidine] | 0.92 | 1.79 |  | 
CC(C)(C)NC[C@H]1CCN(c2nccc(-c3ccc4ccccc4c3)n2)C1 [2-methyl-N-({(3R)-1-[4-(2-naphthyl)pyrimidin-2-yl]pyrrolidin-3-yl}methyl)propan-2-amine] | 2.24 | 0.01 | 2.300 | 

Compound | fold induction at 2 µM | fold induction at 20 µM | A = MAX FOLD Induction/DMSO CONTROL [fold] | pEC50
CN(C)C(=O)N[C@@H]1CCN(c2nccc(-c3ccc4ccccc4c3)n2)C1 [N,N-dimethyl-N′-{(3R)-1-[4-(2-naphthyl)pyrimidin-2-yl]pyrrolidin-3-yl}urea] | 1.79 | 0.26 |  | 
NCCC1CCN(c2nccc(-c3ccc4ccccc4c3)n2)C1 (stereo not shown) [2-{1-[4-(2-naphthyl)pyrimidin-2-yl]pyrrolidin-3-yl}ethanamine] | 4.23 |  | 5.940 | 6.15
CCCNc1nccc(-c2ccc3ccccc3c2)n1 [4-(2-naphthyl)-N-propylpyrimidin-2-amine] | 1.28 |  |  | 
CCNC(=O)NCC1CN(c2nccc(-c3ccc4ccccc4c3)n2)C1 [N-ethyl-N′-({1-[4-(2-naphthyl)pyrimidin-2-yl]azetidin-3-yl}methyl)urea] |  | 1.06 |  | 
CN(C)S(=O)(=O)NCC1CCN(c2nccc(-c3ccc4ccccc4c3)n2)C1 (stereo not shown) [N,N-dimethyl-N′-({1-[4-(2-naphthyl)pyrimidin-2-yl]pyrrolidin-3-yl}methyl)sulfamide] | 0.99 | 1.2 |  | 
CN(c1nccc(-c2ccc3ccccc3c2)n1)C1CCN(C(=O)C(F)(F)F)CC1 [N-methyl-4-(2-naphthyl)-N-[1-(trifluoroacetyl)piperidin-4-yl]pyrimidin-2-amine] | 1.03 | 1.06 |  | 
OCC1CCN(c2nccc(-c3ccc4ccccc4c3)n2)CC1 [{1-[4-(2-naphthyl)pyrimidin-2-yl]piperidin-4-yl}methanol] | 1.81 | 0.02 |  | 
O=C(NCC[C@H]1CCCN1c1nccc(-c2ccc3ccccc3c2)n1)C(F)(F)F [2,2,2-trifluoro-N-(2-{(2R)-1-[4-(2-naphthyl)pyrimidin-2-yl]pyrrolidin-2-yl}ethyl)acetamide] | 0.84 | 2.3 | 1.535 | 5.92
c1ccc2cc(-c3ccnc(N4CC[C@H](N5CCCC5)C4)n3)ccc2c1 [(3′S)-1′-[4-(2-naphthyl)pyrimidin-2-yl]-1,3′-bipyrrolidine] | 1.45 | 0.83 |  | 
CC(C)(C)NC[C@@H]1CCN(c2nccc(-c3ccc4ccccc4c3)n2)C1 [2-methyl-N-({(3S)-1-[4-(2-naphthyl)pyrimidin-2-yl]pyrrolidin-3-yl}methyl)propan-2-amine] | 2.44 | 0.06 | 4.610 | 
c1ccc2cc(-c3ccnc(NC4CCNCC4)n3)ccc2c1 [4-(2-naphthyl)-N-piperidin-4-ylpyrimidin-2-amine] | 1.47 | 1.75 | 3.723 | 5.38
OC[C@H]1CCCN(c2nccc(-c3ccc4ccccc4c3)n2)C1 [{(3S)-1-[4-(2-naphthyl)pyrimidin-2-yl]piperidin-3-yl}methanol] | 2.8 | 1.81 | 1.840 | 
CC(C)(O)[C@H](N)C1CCN(c2nccc(-c3ccc4ccccc4c3)n2)CC1 [(1R)-1-amino-2-methyl-1-{1-[4-(2-naphthyl)pyrimidin-2-yl]piperidin-4-yl}propan-2-ol] | 1.78 |  |  | 
COC(=O)N[C@H]1CC[C@H](Nc2nccc(-c3ccc4ccccc4c3)n2)CC1 [methyl (trans-4-{[4-(2-naphthyl)pyrimidin-2-yl]amino}cyclohexyl)carbamate] | 2.53 | 1.66 | 2.490 | 4.91
O=C(N[C@@H]1CCN(c2nccc(-c3ccc4ccccc4c3)n2)C1)c1ccc(Cl)cc1 [4-chloro-N-{(3R)-1-[4-(2-naphthyl)pyrimidin-2-yl]pyrrolidin-3-yl}benzamide] | 1.68 |  |  | 
O[C@H]1CCCN([C@@H]2CCN(c3nccc(-c4ccc5ccccc5c4)n3)C2)C1 [(3S)-1-{(3R)-1-[4-(2-naphthyl)pyrimidin-2-yl]pyrrolidin-3-yl}piperidin-3-ol] |  |  |  | 5.62
CC(C)(C)OC(=O)N1CC(CNc2nccc(-c3ccc4ccccc4c3)n2)C1 [tert-butyl 3-({[4-(2-naphthyl)pyrimidin-2-yl]amino}methyl)azetidine-1-carboxylate] | 1.8 | 1.02 |  | 
CC(C)(C)OC(=O)N1CCN(C[C@H]2CCN(c3nccc(-c4ccc5ccccc5c4)n3)C2)CC1 [tert-butyl 4-({(3R)-1-[4-(2-naphthyl)pyrimidin-2-yl]pyrrolidin-3-yl}methyl)piperazine-1-carboxylate] | 1.95 |  |  | 
c1ccc2cc(-c3ccnc(N4CC[C@H](CN5CCCCC5)C4)n3)ccc2c1 [4-(2-naphthyl)-2-[(3R)-3-(piperidin-1-ylmethyl)pyrrolidin-1-yl]pyrimidine] | 1.21 | 1.34 |  | 
